Experimental data from ChEMBL document CHEMBL1909294, “Translating clinical findings into knowledge in drug safety evaluation--drug induced liver injury prediction system (DILIps)” (PLoS Comput Biol, 2011).
Structures can show the parent of a compound that is named as a salt.

Tested on: Hepatotoxicity
Details: not given
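Throughout, for DILI positive/negative: binary label assigned from drug-induced liver injury observed in pharmaceutical company records, forming the validation set for the DILIps prediction system.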
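Throughout, for HepSE Combined Scores: combined hepatic side effect score as listed in the training data of the Drug Induced Liver Injury Prediction System (DILIps).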
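Throughout, for HepSE bilirubinemia: bilirubinemia hepatic side effect score drawn from the DILIps training data, a prediction system for drug-induced liver injury; call rule not given here.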
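Throughout, for HepSE cholecystitis: Cholecystitis-related hepatic side effect score drawn from the DILIps (drug-induced liver injury prediction) training data set; call rule not given here.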
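Throughout, for HepSE cholelithiasis: hepatic side effect score for cholelithiasis, drawn from the DILIps training data for predicting drug-induced liver injury; call rule not given here.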
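Throughout, for HepSE cirrhosis: cirrhosis hepatic side effect score taken from the DILIps (drug-induced liver injury prediction) training set; call rule not given here.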
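Throughout, for HepSE elevated liver function tests: hepatic side effect score for raised liver function tests, as recorded in the DILIps training set used for predicting drug-induced liver injury.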
Throughout, for HepSE hepatic failure: call rule not given here.
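Throughout, for HepSE hepatic necrosis: score of hepatic side effects for hepatic necrosis, drawn from the training data of DILIps, a prediction system for drug-induced liver injury; call rule not given here.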
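Throughout, for HepSE hepatitis: Hepatitis-related hepatic side effect score taken from the training data of DILIps, a prediction system for drug-induced liver injury; call rule not given here.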
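Throughout, for HepSE hepatomegaly: hepatic side effect score for hepatomegaly, taken from the training set of the DILIps drug-induced liver injury prediction system; call rule not given here.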
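Throughout, for HepSE jaundice: Jaundice-related hepatic side-effect score drawn from the training data of the DILIps (drug-induced liver injury prediction system); call rule not given here.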
Throughout, for HepSE liver disease: call rule not given here.
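Throughout, for HepSE liver fatty: hepatic side effect score for fatty liver, taken from the DILIps training set for predicting drug-induced liver injury; call rule not given here.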
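Throughout, for HepSE liver function tests abnormal: hepatic side effect score taken from the DILIps (drug-induced liver injury prediction system) training data, here covering abnormal liver function test findings.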

VITAMIN B12 showed a HepSE_bilirubinemia of 0.

Tested on: Hepatotoxicity
Details: not given
Remark: another data set of the same source

With VITAMIN B12 the HepSE_liver disease was 0.

Tested on: Hepatotoxicity
Details: not given
Remark: another data set of the same source

With VITAMIN B12 the HepSE_cholelithiasis was 0.

Tested on: Hepatotoxicity
Details: not given
Remark: another data set of the same source

Compound VITAMIN B12 has a HepSE_jaundice of 0.

Tested on: Hepatotoxicity
Details: not given
Remark: another data set of the same source

Compound VITAMIN B12 has a HepSE_cirrhosis of 0.

Tested on: Hepatotoxicity
Details: not given
Remark: another data set of the same source

With VITAMIN B12 the “HepSE_Combined Scores” value was 0.

Tested on: Hepatotoxicity
Details: not given
Remark: another data set of the same source

`COc1cccc(OC)c1C(=O)N[C@@H]1C(=O)N2[C@@H]1SC(C)(C)[C@@H]2C(=O)[O-].[Na+]` and `Cc1onc(-c2ccccc2Cl)c1C(=O)N[C@@H]1C(=O)N2[C@@H]1SC(C)(C)[C@@H]2C(=O)[O-].O.[Na+]` [CLOXACILLIN SODIUM] are the same in DILI positive/negative: 1 for the first, 1 for the second.

Going from `Cl.Nc1cc(Cl)cc(Cl)c1` to `Oc1c(Cl)cc(Cl)cc1Sc1cc(Cl)cc(Cl)c1O` [BITHIONOL], the DILI positive/negative rises from 0 to 1.

First: C=CC(O)CC#N (stereo not drawn)
Second: C=CCO [ALLYL ALCOHOL]
The DILI positive/negative of the first is lower: 0 for the first, 1 for the second.

First: O=C1NC(=O)C(O)(O)C(=O)N1
Second: CCC1(c2ccccc2)C(=O)NC(=O)N(C)C1=O (stereo not drawn) [MEPHOBARBITAL]
The DILI positive/negative of the first is lower: 0 for the first, 1 for the second.

Compared with `O=C1NCN(c2ccccc2)C12CCN(CCCC(c1ccc(F)cc1)c1ccc(F)cc1)CC2`, `COc1ccc(CCN2CCC(Nc3nc4ccccc4n3Cc3ccc(F)cc3)CC2)cc1` [ASTEMIZOLE] is lower in DILI positive/negative: 1 for the first, 0 for the second.

First: C=C1CC[C@@]2(O)[C@H]3Cc4ccc(O)c5c4[C@@]2(CCN3CC2CC2)[C@H]1O5
Second: C#C[C@]1(O)CC[C@H]2[C@@H]3CCc4cc(O)ccc4[C@H]3CC[C@@]21C [ETHINYL ESTRADIOL]
The DILI positive/negative of the first is lower: 0 for the first, 1 for the second.

`S=C=Nc1cccc2ccccc12` [1-NAPHTHYLISOTHIOCYANATE] and `Cc1ccc2cc3c(ccc4ccccc43)c3c2c1CC3` [3-METHYLCHOLANTHRENE] are the same in DILI positive/negative: 1 for the first, 1 for the second.

`CC(=O)Nc1ccc2c(c1)Cc1ccccc1-2` [2-ACETYLAMINOFLUORENE] and `Cl.O=C(O)CCCCCCNC1c2ccccc2CCc2ccccc21` [AMINEPTINE HYDROCHLORIDE] are the same in DILI positive/negative: 1 for the first, 1 for the second.

`CC(=O)CC(c1ccc([N+](=O)[O-])cc1)c1c(O)c2ccccc2oc1=O` (stereo not drawn) [ACENOCOUMAROL] and `C[C@H](CCc1ccccc1)NC[C@H](O)c1ccc(O)c(C(N)=O)c1` [DILEVALOL] are the same in DILI positive/negative: 1 for the first, 1 for the second.

`CC(=O)c1ccc(S(=O)(=O)NC(=O)NC2CCCCC2)cc1` [ACETOHEXAMIDE] and `CC1(COc2ccc(CC3SC(=O)NC3=O)cc2)CCCCC1` (stereo not drawn) [CIGLITAZONE] are the same in DILI positive/negative: 1 for the first, 1 for the second.

First: N[C@H](C(=O)O)[C@@H]1CC(Cl)=NO1 [ACIVICIN]
Second: CCSCC[C@H](N)C(=O)O [ETHIONINE]
The DILI positive/negative of the first is lower: 0 for the first, 1 for the second.

`COc1cc2c(c3oc(=O)c4c(c13)CCC4=O)[C@@H]1C=CO[C@@H]1O2` [AFLATOXIN] and `CC1(c2ccccc2)Cc2cc(OCC(=O)O)c(Cl)c(Cl)c2C1=O` (stereo not drawn) [INDACRINONE] are the same in DILI positive/negative: 1 for the first, 1 for the second.

Compared with `C=CCOC=O` [ALLYL FORMATE], `COc1cc(CNC(=O)CCCC/C=C/C(C)C)ccc1O` [CAPSAICIN] is lower in DILI positive/negative: 1 for the first, 0 for the second.

`Nc1ccc(C(=O)[O-])cc1.[K+]` [AMINOBENZOATE POTASSIUM] and `O=C(O)c1ccncc1` [ISONICOTINIC ACID] are the same in DILI positive/negative: 0 for the first, 0 for the second.

`CCOC(=O)C1(c2ccccc2)CCN(CCc2ccc(N)cc2)CC1.Cl` [ANILERIDINE HYDROCHLORIDE] and `CCOC(=O)C1(c2ccccc2)CCN(CCC(C#N)(c2ccccc2)c2ccccc2)CC1.Cl` [DIPHENOXYLATE HYDROCHLORIDE] are the same in DILI positive/negative: 0 for the first, 0 for the second.

`O=C1O[C@H]([C@@H](O)CO)C(O)=C1O` [ASCORBIC ACID] and `N[C@@H](Cc1ccc(O)c(O)c1)C(=O)O` [LEVODOPA] are the same in DILI positive/negative: 0 for the first, 0 for the second.

`C=C1[C@@H]2CCC3[C@@](CC[C@@H]4[C@H](C(=O)O)C[C@@H](O[C@@H]5O[C@H](CO)[C@@H](OS(=O)(=O)[O-])[C@H](OS(=O)(=O)[O-])[C@H]5OC(=O)CC(C)C)C[C@@]34C)(C2)[C@@H]1O.[K+].[K+]` (stereo partly drawn) [ATRACTYLOSIDE] and `C[C@H](CCC(=O)O)[C@H]1CC[C@H]2[C@@H]3[C@H](O)C[C@@H]4C[C@H](O)CC[C@]4(C)[C@H]3CC[C@]12C` [CHENODIOL] are the same in DILI positive/negative: 1 for the first, 1 for the second.

`Cl.Cl.O=C(CCN1CCN2CCCC2C1)N1c2ccccc2Sc2ccc(Cl)cc21` (stereo not drawn) [AZACLORZINE HYDROCHLORIDE] and `CN1CCN(C(c2ccccc2)c2ccccc2)CC1` [CYCLIZINE] are the same in DILI positive/negative: 1 for the first, 1 for the second.

Going from `CN1CCC(=C2c3ccccc3CCc3cccnc32)CC1.O=C(O)/C=C\C(=O)O.O=C(O)/C=C\C(=O)O` [AZATADINE MALEATE] to `C[C@@H](CO)NC(=O)[C@@H]1C=C2c3cccc4[nH]cc(c34)C[C@H]2N(C)C1.O=C(O)/C=C\C(=O)O` [ERGONOVINE MALEATE], the DILI positive/negative falls from 1 to 0.

First: CC1(C)S[C@@H]2[C@H](NC(=O)[C@H](NC(=O)N3CCNC3=O)c3ccccc3)C(=O)N2[C@H]1C(=O)[O-].[Na+] [AZLOCILLIN SODIUM]
Second: Cn1nnnc1SCC1=C(C(=O)[O-])N2C(=O)[C@@H](NC(=O)[C@H](O)c3ccccc3)[C@H]2SC1.[Na+] [CEFAMANDOLE SODIUM]
The DILI positive/negative of the first is lower: 0 for the first, 1 for the second.

Going from `CC(C)COCC(CN(Cc1ccccc1)c1ccccc1)N1CCCC1.Cl.O` (stereo not drawn) [BEPRIDIL HYDROCHLORIDE] to `CN(C)CCC(c1ccc(Br)cc1)c1ccccn1.O=C(O)/C=C\C(=O)O` (stereo not drawn) [BROMPHENIRAMINE MALEATE], the DILI positive/negative falls from 1 to 0.

`Brc1ccccc1` [BROMOBENZENE] and `CCC1(c2ccccc2)CCC(=O)NC1=O` (stereo not drawn) [GLUTETHIMIDE] are the same in DILI positive/negative: 1 for the first, 1 for the second.

`C=C1CC[C@H](O)C/C1=C/C=C1\CCC[C@]2(C)[C@@H]([C@H](C)CCCC(C)(C)O)CC[C@@H]12.O` [CALCIFEDIOL] and `C[C@]12CC[C@@H]3c4ccc(O)cc4CC[C@H]3[C@@H]1CCC2=O` [ESTRONE] are the same in DILI positive/negative: 1 for the first, 1 for the second.

First: CC1(C)[C@@H](OC(=O)CCC(=O)[O-])CC[C@]2(C)[C@H]3C(=O)C=C4[C@@H]5C[C@@](C)(C(=O)[O-])CC[C@]5(C)CC[C@@]4(C)[C@]3(C)CC[C@@H]12.[Na+].[Na+] [CARBENOXOLONE SODIUM]
Second: C#C[C@]1(OC(C)=O)CC[C@H]2[C@@H]3CCC4=C[C@@H](OC(C)=O)CC[C@@H]4[C@H]3CC[C@@]21C [ETHYNODIOL DIACETATE]
The DILI positive/negative of the first is lower: 0 for the first, 1 for the second.

First: CCN1CCN(C(=O)N[C@@H](C(=O)N[C@@H]2C(=O)N3C(C(=O)O)=C(CSc4nnnn4C)CS[C@H]23)c2ccc(O)cc2)C(=O)C1=O.O.O [CEFOPERAZONE DIHYDRATE]
Second: CN(C)CCn1nnnc1SCC1=C(C(=O)O)N2C(=O)[C@@H](NC(=O)Cc3csc(N)n3)[C@H]2SC1.Cl.Cl [CEFOTIAM HYDROCHLORIDE]
The DILI positive/negative of the first is lower: 0 for the first, 1 for the second.

Compared with `CC(=O)OCC1=C(C(=O)[O-])N2C(=O)[C@@H](NC(=O)Cc3cccs3)[C@H]2SC1.[Na+]` [CEPHALOTHIN SODIUM], `CC(=O)OCC1=C(C(=O)[O-])N2C(=O)[C@@H](NC(=O)CSc3ccncc3)[C@H]2SC1.[Na+]` [CEPHAPIRIN SODIUM] is lower in DILI positive/negative: 1 for the first, 0 for the second.

`CN(C)[C@@H]1C(O)=C(C(N)=O)C(=O)[C@@]2(O)C(O)=C3C(=O)c4c(O)ccc(Cl)c4[C@@](C)(O)[C@H]3C[C@@H]12.Cl` [CHLORTETRACYCLINE HYDROCHLORIDE] and `C=C1c2cccc(O)c2C(=O)C2=C(O)[C@]3(O)C(=O)C(C(N)=O)=C(O)[C@@H](N(C)C)[C@@H]3[C@@H](O)[C@H]12.Cl` [METHACYCLINE HYDROCHLORIDE] are the same in DILI positive/negative: 1 for the first, 1 for the second.

Compared with `CN(CCCCCCCCCCN(C)C(=O)Oc1cccc([N+](C)(C)C)c1)C(=O)Oc1cccc([N+](C)(C)C)c1.[Br-].[Br-]` [DEMECARIUM BROMIDE], `CC[N+](CC)(CC)CCOc1cccc(OCC[N+](CC)(CC)CC)c1OCC[N+](CC)(CC)CC.[I-].[I-].[I-]` [GALLAMINE TRIETHIODIDE] is lower in DILI positive/negative: 1 for the first, 0 for the second.

Compared with `Br.COc1ccc2c(c1)[C@]13CCCC[C@@H]1[C@H](C2)N(C)CC3.O` [DEXTROMETHORPHAN HYDROBROMIDE], `C#C[C@]1(O)CC[C@H]2[C@@H]3CCc4cc(OC)ccc4[C@H]3CC[C@@]21C` [MESTRANOL] is higher in DILI positive/negative: 0 for the first, 1 for the second.

`CC[N+](C)(C)c1cccc(O)c1.[Cl-]` [EDROPHONIUM CHLORIDE] and `COc1ccc2[nH]cc(CCNC(C)=O)c2c1` [MELATONIN] are the same in DILI positive/negative: 0 for the first, 0 for the second.

Compared with `O=c1[nH]c(=O)n([C@H]2C[C@H](O)[C@@H](CO)O2)cc1F` [FLOXURIDINE], `Cc1cc(NC(=O)C2=C(O)c3ccccc3S(=O)(=O)N2C)no1` [ISOXICAM] is lower in DILI positive/negative: 1 for the first, 0 for the second.

First: CCN(CC)CCNc1ccc(CO)c2sc3ccccc3c(=O)c12 [HYCANTHONE]
Second: COc1ccc(OC)c(C(O)C(C)N)c1.Cl (stereo not drawn) [METHOXAMINE HYDROCHLORIDE]
The DILI positive/negative of the first is higher: 1 for the first, 0 for the second.

Same assay, conditions: Liver

`Cl.NCCNCCNCCN` and `CCN(CC)Cc1cc(Nc2ccnc3cc(Cl)ccc23)ccc1O.Cl.Cl.Cl` are the same in DILI positive/negative: 1 for the first, 1 for the second.

First: Cl.Cl.OCCN1CCN(CC/C=C2/c3ccccc3Sc3ccc(C(F)(F)F)cc32)CC1
Second: Cc1c(F)c(N2CCNC(C)C2)cc2c1c(=O)c(C(=O)O)cn2C1CC1 (stereo not drawn) [GREPAFLOXACIN]
The DILI positive/negative of the first is lower: 0 for the first, 1 for the second.

Work on `Nc1ncn([C@@H]2O[C@H](CO)[C@@H](O)[C@H]2O)c(=O)n1` [AZACITIDINE] yielded a DILI positive/negative of 1.

Tested on: Hepatotoxicity
Details: not given
Remark: another data set of the same source

VITAMIN B12 was tested, and the “HepSE_liver function tests abnormal” value was 0.

Tested on: Hepatotoxicity
Details: not given
Remark: another data set of the same source

With VITAMIN B12 the HepSE_hepatomegaly was 0.

Tested on: Hepatotoxicity
Details: not given
Remark: another data set of the same source

With VITAMIN B12 the HepSE_cholecystitis was 0.

Tested on: Hepatotoxicity
Details: not given
Remark: another data set of the same source

VITAMIN B12 gave a HepSE_hepatic necrosis of 0.

Tested on: Hepatotoxicity
Details: not given
Remark: another data set of the same source

With VITAMIN B12 the HepSE_liver fatty was 0.

Tested on: Hepatotoxicity
Details: not given
Remark: another data set of the same source

For VITAMIN B12, the HepSE_hepatitis was 0.

Tested on: Hepatotoxicity
Details: not given
Remark: another data set of the same source

With VITAMIN B12 the HepSE_hepatic failure was 0.

Tested on: Hepatotoxicity
Details: not given
Remark: another data set of the same source

For VITAMIN B12, the “HepSE_elevated liver function tests” value was 0.
